Data from patent publication US20150105252A1, “SUBSTITUTED PYRAZOLES AS HERBICIDES” (E I DU PONT DE NEMOURS AND COMPANY, priority 2013, published 2015).

Columns and labels:
bluegrass [1] = assay: Test D preemergence; type: in vivo, Poa annua; conditions: scale 0 to 100
Excerpt: (§1) Seeds of plant species selected from bluegrass (annual bluegrass, Poa annua), blackgrass (Alopecurus myosuroides), canarygrass (littleseed canarygrass, Phalaris minor), chickweed (common chickweed, Stellaria media), galium (catchweed bedstraw, Galium aparine), bromegrass, downy (downy bromegrass, Bromus tectorum), field poppy (Papaver rhoeas), field violet (Viola arvensis), foxtail, green (green foxtail, Setaria viridis), deadnettle (henbit deadnettle, Lamium amplexicaule), ryegrass, Italian (Italian ryegrass, Lolium multiflorum), kochia (Kochia scoparia), lambsquarters (Chenopodium album), oilseed rape (Brassica napus), pigweed (redroot pigweed, Amaranthus retroflexus), chamomile (scentless chamomile, Matricaria inodora), speedwell (bird's-eye speedwell, Veronica persica), barley, spring (spring barley, Hordeum vulgare), wheat, spring (spring wheat, Triticum aestivum), buckwheat, wild (wild buckwheat, Polygonum convolvulus), mustard, wild (wild mustard, Sinapis arvensis), oat, wild (wild oat, Avena fatua), radish, wild (wild radish, Raphanus raphanistrum), windgrass (Apera spica-venti), Russian thistle (Salsola kali), barley, winter (winter barley, Hordeum vulgare), and wheat, winter (winter wheat, Triticum aestivum) were planted into a silt loam soil and treated preemergence with test chemicals formulated in a non-phytotoxic solvent mixture which included a surfactant.
(§2) At the same time, these species were planted in pots containing Redi-Earth® planting medium (Scotts Company, 14111 Scottslawn Road, Marysville, Ohio 43041) comprising spaghnum peat moss, vermiculite, wetting agent and starter nutrients and treated with postemergence applications of the test chemicals formulated in the same manner. Plants ranged in height from 2 to 18 cm (1- to 4-leaf stage). Treated plants and controls were maintained in a controlled growth environment for 14 to 21 days after which time all species were compared to controls and visually evaluated. Plant response ratings, summarized in Table D, are based on a scale of 0 to 100 where 0 is no effect and 100 is complete control. A dash (-) response means no test result.

chickweed = assay: Test D preemergence; type: in vivo, Stellaria media; conditions: scale 0 to 100
Excerpt: as §1, §2

bluegrass [2] = assay: Test D postemergence; type: in vivo, Poa annua; conditions: scale 0 to 100
Excerpt: as §1, §2

field poppy = assay: Test D postemergence; type: in vivo, Papaver rhoeas; conditions: scale 0 to 100
Excerpt: as §1, §2

field violet = assay: Test D postemergence; type: in vivo, Viola arvensis; conditions: scale 0 to 100
Excerpt: as §1, §2

foxtail, green = assay: Test D postemergence; type: in vivo, Setaria viridis; conditions: scale 0 to 100
Excerpt: as §1, §2

speedwell = assay: Test D postemergence; type: in vivo, Veronica persica; conditions: scale 0 to 100
Excerpt: as §1, §2

wheat, spring = assay: Test D postemergence; type: in vivo, Triticum aestivum; conditions: scale 0 to 100
Excerpt: as §1, §2

wheat, winter = assay: Test D postemergence; type: in vivo, Triticum aestivum; conditions: scale 0 to 100
Excerpt: as §1, §2

oat, wild = assay: Test D postemergence; type: in vivo, Avena fatua; conditions: scale 0 to 100
Excerpt: as §1, §2

wild poinsettia = assay: Test F preemergence; type: in vivo, Euphorbia heterophylla
Excerpt: (§3) Seeds of plant species selected from corn (Zea mays), soybean (Glycine max), velvetleaf (Abutilon theophrasti), lambsquarters (Chenopodium album), wild poinsettia (Euphorbia heterophylla), pigweed, palmer (palmer pigweed, Amaranthus palmeri), common waterhemp (Amaranthus rudis), surinam grass (Brachiaria decumbens), large crabgrass (Digitaria sanguinalis), crabgrass, Brazil (Brazilian crabgrass, Digitaria horizontalis), fall panicum (Panicum dichotomiflorum), giant foxtail (Setaria faberii), green foxtail (Setaria viridis), goosegrass (Eleusine indica), johnsongrass (Sorghum halepense), common ragweed (Ambrosia elation), barnyardgrass (Echinochloa crus-galli), southern sandbur (Cenchrus echinatus), arrowleaf sida (Sida rhombifolia), Italian ryegrass (Lolium multiflorum), dayflower, VA (Virginia (VA) dayflower, Commelina virginica), field bindweed (Convolvulus arvensis), cocklebur (common cocklebur, Xanthium strumarium), morningglory (Ipomoea coccinea), nightshade (eastern black nightshade, Solanum ptycanthum), kochia (Kochia scoparia), yellow nutsedge (Cyperus esculentus), and hairy beggarticks (Bidens pilosa), were planted into a silt loam soil and treated preemergence with test chemicals formulated in a non-phytotoxic solvent mixture which included a surfactant.
(§4) At the same time, plants from these crop and weed species and also horseweed (Canada horseweed, Conyza canadensis), smartweed (ladysthumb smartweed, Polygonum persicaria), waterhemp_RES1, (ALS & Triazine resistant common waterhemp, Amaranthus rudis), and waterhemp_RES2, (ALS & HPPD resistant common waterhemp, Amaranthus rudis) were treated with postemergence applications of test chemicals formulated in the same manner. Plants ranged in height from 2 to 18 cm for postemergence treatments (1- to 4-leaf stage). Treated plants and controls were maintained in a greenhouse for 14 to 21 days, after which time all species were compared to controls and visually evaluated. Plant response ratings, summarized in Table F, are based on a scale of 0 to 100 where 0 is no effect and 100 is complete control. A dash (-) response means no test result.

crabgrass, Brazil = assay: Test F preemergence; type: in vivo, Digitaria horizontalis
Excerpt: as §3, §4

green foxtail = assay: Test F preemergence; type: in vivo, Setaria viridis
Excerpt: as §3, §4

hairy beggarticks = assay: Test F preemergence; type: in vivo, Bidens pilosa
Excerpt: as §3, §4

[3] = Preemergence, 31 g ai/ha, scale 0 to 100
[4] = Preemergence, 62 g ai/ha, scale 0 to 100
[5] = Preemergence, 125 g ai/ha, scale 0 to 100
[6] = preemergence, 8 g ai/ha, scale 0 to 100, 100 is complete control
[7] = preemergence, 16 g ai/ha, scale 0 to 100, 100 is complete control

## CCc1cc(C(=O)NC(C)C)nn1Cc1ccnc(C(F)(F)F)c1 [Compound 103]
Bluegrass [1]; 31 g ai/ha
  Plant response rating, Bluegrass: 10
Bluegrass [1]; 62 g ai/ha
  Plant response rating, Bluegrass: 35
Bluegrass [1]; 125 g ai/ha
  Plant response rating, Bluegrass: 65
Bluegrass [1]; 250 g ai/ha
  Plant response rating, Bluegrass: 85
chickweed; 31 g ai/ha
  Plant response rating, Chickweed: 95
chickweed; 62 g ai/ha
  Plant response rating, Chickweed: 100
chickweed; 125 g ai/ha
  Plant response rating, Chickweed: 100
chickweed; 250 g ai/ha
  Plant response rating, Chickweed: 100
Bluegrass [2]; Postemergence, 31 g ai/ha
  Bluegrass plant response rating: 10
Bluegrass [2]; Postemergence, 125 g ai/ha
  Bluegrass plant response rating: 20
Bluegrass [2]; Postemergence, 250 g ai/ha
  Bluegrass plant response rating: 30
Bluegrass [2]; postemergence, 62 g ai/ha
  Bluegrass plant response rating: 25
Field poppy; Postemergence, 31 g ai/ha
  Field Poppy plant response rating: 40
Field poppy; Postemergence, 125 g ai/ha
  Field Poppy plant response rating: 60
Field poppy; Postemergence, 250 g ai/ha
  Field Poppy plant response rating: 70
Field poppy; postemergence, 62 g ai/ha
  Field Poppy plant response rating: 55
Field violet; Postemergence, 31 g ai/ha
  Field Violet plant response rating: 35
Field violet; Postemergence, 125 g ai/ha
  Field Violet plant response rating: 60
Field violet; Postemergence, 250 g ai/ha
  Field Violet plant response rating: 60
Field violet; postemergence, 62 g ai/ha
  Field Violet plant response rating: 55
foxtail, green; Postemergence, 31 g ai/ha
  Foxtail, Green plant response rating: 30
foxtail, green; Postemergence, 125 g ai/ha
  Foxtail, Green plant response rating: 35
foxtail, green; Postemergence, 250 g ai/ha
  Foxtail, Green plant response rating: 65
foxtail, green; postemergence, 62 g ai/ha
  Foxtail, Green plant response rating: 20
speedwell; Postemergence, 31 g ai/ha
  Speedwell plant response rating: 35
speedwell; Postemergence, 125 g ai/ha
  Speedwell plant response rating: 55
speedwell; Postemergence, 250 g ai/ha
  Speedwell plant response rating: 70
speedwell; postemergence, 62 g ai/ha
  Speedwell plant response rating: 45
wheat, spring; Postemergence, 31 g ai/ha
  Wheat, Spring plant response rating: 0
wheat, spring; Postemergence, 125 g ai/ha
  Wheat, Spring plant response rating: 0
wheat, spring; Postemergence, 250 g ai/ha
  Wheat, Spring plant response rating: 5
wheat, spring; postemergence, 62 g ai/ha
  Wheat, Spring plant response rating: 0
wheat, winter; Postemergence, 31 g ai/ha
  Wheat, Winter plant response rating: 0
wheat, winter; Postemergence, 125 g ai/ha
  Wheat, Winter plant response rating: 10
wheat, winter; Postemergence, 250 g ai/ha
  Wheat, Winter plant response rating: 30
wheat, winter; postemergence, 62 g ai/ha
  Wheat, Winter plant response rating: 5
oat, wild; Postemergence, 31 g ai/ha
  Oat, Wild plant response rating: 10
oat, wild; Postemergence, 125 g ai/ha
  Oat, Wild plant response rating: 20
oat, wild; Postemergence, 250 g ai/ha
  Oat, Wild plant response rating: 25
oat, wild; postemergence, 62 g ai/ha
  Oat, Wild plant response rating: 15

## CCOc1cc(C(=O)NCC(F)(F)F)nn1Cc1ccnc(C(F)(F)F)c1 [Compound 104]
Wild poinsettia; [3]
  Plant response rating, Wild Poinsettia: 15
Wild poinsettia; [4]
  Plant response rating, Wild Poinsettia: 80
Wild poinsettia; [5]
  Plant response rating, Wild Poinsettia: 98
Wild poinsettia; [6]
  Plant response rating, Wild Poinsettia: 0
Wild poinsettia; [7]
  Plant response rating, Wild Poinsettia: 10
crabgrass, Brazil; [3]
  Plant response rating, Crabgrass, Brazil: 95
crabgrass, Brazil; [4]
  Plant response rating, Crabgrass, Brazil: 100
crabgrass, Brazil; [5]
  Plant response rating, Crabgrass, Brazil: 100
crabgrass, Brazil; [6]
  Plant response rating, Crabgrass, Brazil: 5
crabgrass, Brazil; [7]
  Plant response rating, Crabgrass, Brazil: 10
Green foxtail; [3]
  Plant response rating, Green Foxtail: 100
Green foxtail; [4]
  Plant response rating, Green Foxtail: 100
Green foxtail; [5]
  Plant response rating, Green Foxtail: 100
Green foxtail; [6]
  Plant response rating, Green Foxtail: 5
Green foxtail; [7]
  Plant response rating, Green Foxtail: 60
Hairy beggarticks; [3]
  Plant response rating, Hairy Beggarticks: 0
Hairy beggarticks; [4]
  Plant response rating, Hairy Beggarticks: 0
Hairy beggarticks; [5]
  Plant response rating, Hairy Beggarticks: 10
Hairy beggarticks; [6]
  Plant response rating, Hairy Beggarticks: 0
Hairy beggarticks; [7]
  Plant response rating, Hairy Beggarticks: 0

## CCNC(=O)c1cc(CCCl)n(Cc2ccnc(C(F)(F)F)c2)n1 [Compound 179]
Wild poinsettia; [3]
  Plant response rating, Wild Poinsettia: 5
Wild poinsettia; [4]
  Plant response rating, Wild Poinsettia: 40
Wild poinsettia; [5]
  Plant response rating, Wild Poinsettia: 50
Wild poinsettia; [6]
  Plant response rating, Wild Poinsettia: 0
crabgrass, Brazil; [3]
  Plant response rating, Crabgrass, Brazil: 75
crabgrass, Brazil; [4]
  Plant response rating, Crabgrass, Brazil: 100
crabgrass, Brazil; [5]
  Plant response rating, Crabgrass, Brazil: 100
crabgrass, Brazil; [6]
  Plant response rating, Crabgrass, Brazil: 0
Green foxtail; [3]
  Plant response rating, Green Foxtail: 20
Green foxtail; [4]
  Plant response rating, Green Foxtail: 20
Green foxtail; [5]
  Plant response rating, Green Foxtail: 70
Green foxtail; [6]
  Plant response rating, Green Foxtail: 0
Hairy beggarticks; [3]
  Plant response rating, Hairy Beggarticks: 40
Hairy beggarticks; [4]
  Plant response rating, Hairy Beggarticks: 40
Hairy beggarticks; [5]
  Plant response rating, Hairy Beggarticks: 40
Hairy beggarticks; [6]
  Plant response rating, Hairy Beggarticks: 35
